{
  "source": "patent US10934326B2",
  "about": "“Peripheral modifications on pocket-redesigned vancomycin analogs synergistically improve antimicrobial potency and durability” (priority 2016, dated 2021)",
  "key": {"[1]": {"test_system": "Enterococcus faecium (VanA VRE, ATCC BAA-2317)", "conditions": "previously reported data; cited from earlier work"}, "[2]": {"test_system": "vancomycin-resistant Enterococcus faecalis (VanA VRE, BM4166)", "experiment": "In vitro antimicrobial assay (MIC), VanA E. faecalis", "type": "cell-based", "conditions": "for antibiotic susceptibility profile of the strain: VanA E. faecalis BM 4166", "description": "(§1) One day before a study was run, fresh cultures of vancomycin-sensitive Staphylococcus aureus (VSSA strain ATCC 25923), methicillin and oxacillin-resistant Staphylococcus aureus subsp. aureus (MRSA strain ATCC 43300), vancomycin-resistant Enterococcus faecalis (VanA VRE, BM4166), Enterococcus faecium (VanA VRE, ATCC BAA-2317), vancomycin-resistant Enterococcus faecalis (VanB VRE, strain ATCC 51299), Escherichia coli (ATCC 25922), Acinetobacter baumannii (ATCC BAA-1710), Pseudomonas aeruginosa (ATCC 15442), Klebsiella pneumoniae (ATCC 700603) were inoculated and grown in an orbital shaker at 37° C. in 100% Mueller-Hinton broth (VSSA, MRSA and VanB VRE), 100% brain-heart infusion broth (VanA VRE, A. baumannii and K. pneumoniae) or 100% Luria broth (E. coli and P. aeruginosa). After 24 hours, the bacterial stock solutions were serially diluted with the culture medium (10% Mueller-Hinton broth for VSSA, MRSA and VanB VRE or 10% brain-heart infusion broth for VanA VRE A. baumannii and K. pneumoniae or 10% Luria Broth for E. coli and P. aeruginosa) to achieve a turbidity equivalent to a 1:100 dilution of a 0.5 M McFarland solution. This diluted bacterial stock solution was then inoculated in a 96-well V-shaped glass coated microtiter plate, supplemented with serial diluted aliquots of the antibiotic solution in DMSO (4 μL), to achieve a total assay volume of 0.1 mL. The plate was then incubated at 37° C. for 18 hours, after which minimal inhibitory concentrations (MICs) were determined by monitoring the cell growth (observed as a pellet) in the wells.\n(§2) The lowest concentration of antibiotic (in μg/mL) capable of eliminating cell growth in the wells is the reported MIC value. The reported MIC values for the vancomycin analogues were determined against vancomycin as a standard in the first well.*\n(§3) [*Clinical and Laboratory Standards Institute. Methods for Dilution Antimicrobial Susceptibility Tests for Bacteria That Grow Aerobically; Approved Standard, 7th ed.; CLSI document M07-A8; Clinical and Laboratory Standards Institute: Wayne, Pa., 2009.]"}, "[3]": {"test_system": "vancomycin-resistant Enterococcus faecalis (VanA VRE, BM4166)", "conditions": "BM 4166; previously reported data; cited from earlier work"}, "[4]": {"test_system": "vancomycin-sensitive Staphylococcus aureus (VSSA strain ATCC 25923)", "conditions": "previously reported data; cited from earlier work"}, "[5]": {"test_system": "Enterococcus faecium (VanA VRE, ATCC BAA-2317)", "experiment": "In vitro antimicrobial assay (MIC), VanA E. faecium", "type": "cell-based", "description": "as §1, §2, §3"}, "[6]": {"conditions": "D-Ala-D-Lac versus D-Ala-D-Ala; cited from earlier work"}, "[7]": {"test_system": "VanA VRE (E. faecalis BM 4166 and E. faecium ATCC BAA-2317)", "experiment": "Cell wall biosynthesis inhibition assay (accumulation of UDPMurNAc-pp 19)", "type": "cell-based, Enterococcus faecalis; Enterococcus faecium", "conditions": "35 μg/mL, tetracycline pretreated VanA VRE, 30 minutes, 37° C.", "description": "The inhibition of bacterial cell wall synthesis was established in an assay that quantitates the accumulation of the peptidoglycan precursor UDP-N-acetyl-muramyl-depsipentapeptide (Compound 19, UDPMurNAc-pp), resulting from inhibited cell wall incorporation following antibiotic treatment. […] This procedure was reduced in scale and modified to enlist reverse-phase HPLC separation, UV detection, and calibration curve determination of the amount of isolated 19, permitting use with limited sample sizes. A larger scale isolation and full characterization of 19 provided the material needed to establish a linear calibration curve.\nThe bacterial suspension was heated at 100° C. for 15 minutes to release cytosolic 19. The entire supernatant was analyzed by semi-preparative reverse-phase HPLC with a single injection and the amount of 19 was quantitated with use of the calibration curve.\nCultures of vancomycin-resistant Enterococcus faecalis (VanA VRE, BM4166) and Enterococcus faecium (VanA VRE, ATCC BAA-2317) were inoculated and grown in an orbital shaker at 37° C. in 100% brain-heart infusion broth for 12 hours. The above bacterial solution was subjected to a subculture to obtain fresh mid-log phase bacterial cells (total volume of bacterial suspension=5 mL, incubation time=6 hours, OD600=0.6). […] Vancomycin analogues were added and the mixture was incubated at 37° C. for a further 30 minutes.\nAfter the bacteria were harvested (3000 rpm, 4° C., 20 minutes), this bacterial precipitate was washed and resuspended in 5 mM glucose and 5 mM HEPES buffer (500 μL, 1:1, pH=7.2). This bacterial suspension was heated at 100° C. for 15 minutes and centrifuged (13000 rpm, 25° C., 10 minutes). […] [*****Allen et al., Antimicrob. Agents Chemother. 1996, 40(10):2356-2362]; Liu et al., J. Am. Chem. Soc. 2001, 123:9916-9917.] The amount of UDP Mur N-Ac pentapeptide (19) was quantified by use of calibration curves for E. faecalis BM4166, and for E. faecium ATCC BAA-2317 based on the area under the curve (AUC)."}, "[8]": {"test_system": "red blood cells (pig whole blood)", "experiment": "Hemolysis assay", "type": "cell-based", "conditions": "assay time extended to 24 hours", "description": "The blood cells in pig whole blood (2 mL, Pel-Free Biologicals, non-sterile, sodium citrate) were harvested (3000 rpm, 4° C., 20 minutes), and the red blood precipitate was washed and resuspended in phosphate buffered saline (pH 7.4). This diluted red blood cell stock solution (384 μL) was incubated with the antibiotic solution in DMSO (16 μL) in a 1 mL microtube to achieve the final concentration of the test compounds. […]\nThe solution was diluted with phosphate buffer saline (pH 7.4, 200 μL) at 25° C. and centrifuged (3000 rpm, 4° C., 20 minutes). The supernatant (200 μL) was transferred to a microtiter plate. A positive control (0.2% vol % Triton® X-100, 100% total hemolysis) and the negative control (no antibiotic, 0% hemolysis) were prepared. A350 was measured using a microplate reader (Molecular Devices®, Max Gemini EX). The % hemolysis was determined by calculating the following equation shown below (eq. 1).\nAlthough the differences in mammalian and bacterial cell wall composition are extensive, including the more highly anionic composition of the bacterial cell wall responsible for a preferential and differential cation binding, lysis of mammalian cell membranes (red blood cells) are potential off-target consequences of cationic compounds that impact bacterial cell membrane integrity. […]"}, "[9]": {"test_system": "vancomycin-resistant Enterococcus faecalis (VanB VRE, strain ATCC 51299)", "conditions": "previously reported data; cited from earlier work"}, "[10]": {"test_system": "methicillin and oxacillin-resistant Staphylococcus aureus subsp. aureus (MRSA strain ATCC 43300)", "conditions": "previously reported data; cited from earlier work"}, "[11]": {"test_system": "VanA VRE (E. faecalis BM4166 and E. faecium ATCC BAA-2317)", "experiment": "Resistance development study (serial passaging at 0.5×MIC)", "type": "cell-based, Enterococcus faecalis; Enterococcus faecium", "conditions": "0.5×MIC serial exposure, MICs monitored daily", "description": "However, an additional and even more important feature of the expression of multiple independent mechanisms of action is a mechanism's impact on the rate at which bacterial resistance may emerge.\nThe MICs of the vancomycin analogues against vancomycin-resistant Enterococcus faecalis (VanA VRE, BM4166) and Enterococcus faecium (VanA VRE, ATCC BAA-2317) were determined. […] A new MIC assay was performed with the same protocol. This process was repeated for 50 passages, and the fold increase in MIC was determined at each passage. [****Pollard et al., J. Antimicrob. Chemother. 2012, 67:2665-2672.]"}, "[12]": {"test_system": "VanA VRE (E. faecalis BM 4166 and E. faecium ATCC BAA-2317)", "experiment": "Cell wall permeability assay (propidium iodide uptake)", "type": "cell-based, Enterococcus faecalis; Enterococcus faecium", "conditions": "10 μM compound", "description": "The effect of the compounds on cell membrane permeability was examined by measuring cytoplasmic membrane uptake of the fluorescent probe propidium iodide in the same VanA vancomycin-resistant E. faecalis (BM 4166) and E. faecium (ATCC BAA-2317) strains. This fluorescent probe only enters cells with permeabilized cell membranes and is detected by the emission of fluorescence upon intracellular nucleic acid binding [Boulos et al., J Microbiol Methods 1999, 37(1):77-86].\nFresh, mid-log phase VanA VRE in pH 7.2 buffer at 25° C. were preincubated with propidium iodide (10 μM) for 5 minutes before the test compounds were added, monitoring the fluorescence emission at 617 nm (excitation at 535 nm) over time, both pre (5 minutes) and post (15 minutes) compound addition. Rapid and sustained increases in fluorescence intensity are observed immediately upon addition of test compounds that induce bacterial cell membrane permeability.\nOne day before a study was run, cultures of vancomycin-resistant Enterococcus faecalis (VanA VRE, BM4166) and Enterococcus faecium (VanA VRE, ATCC BAA-2317), were inoculated and grown in an orbital shaker at 37° C. in 100% brain-heart infusion broth for 12 hours. The above bacterial solution was subjected to a subculture to obtain fresh mid-log phase bacterial cells (total volume of bacterial suspension=7 mL, incubation time=6 hours, OD600=0.6). After the cultured bacteria were harvested (3000 rpm, 4° C., 20 minutes), the white bacterial precipitate was washed and resuspended in 5 mM glucose and 5 mM HEPES buffer (1:1, 500 μL, pH=7.2).\nThis bacterial suspension (130 μL) was charged into a 96-well black plate with a clear bottom (Corning 3650). The propidium iodide dye (10 μL, 150 μM DMSO solution) was added to the above suspension and the fluorescence was monitored at 25° C. for 5 minutes at 30 second intervals using a microplate reader (Molecular Devices®, Max Gemini EX) at an excitation wavelength of 535 nm and an emission wavelength of 617 nm. The test compound (150 μM, 10 μL) was added to the cell suspension and the fluorescence was monitored at 25° C. for an additional 15 minutes."}},
  "note": "“Also recorded” adds a separate entry of the source. Where two headings read alike, the source gives them in different places.",
  "data": [
    {"smiles": "CN[C@H](CC(C)C)C(=O)N[C@H]1C(=O)N[C@@H](CC(N)=O)C(=O)N[C@H]2C(=O)N[C@H]3C(=O)N[C@H](C(=O)N[C@H](C(=O)O)c4cc(O)cc(O)c4-c4cc3ccc4O)[C@H](O)c3ccc(c(Cl)c3)Oc3cc2cc(c3O[C@@H]2O[C@H](CO)[C@@H](O)[C@H](O)[C@H]2O[C@H]2C[C@](C)(N)[C@H](O)[C@H](C)O2)Oc2ccc(cc2Cl)[C@H]1O", "note": "[Compound 1, vancomycin]", "values": [
      {"measurement": "Antimicrobial Activity, MIC, VanA E. faecium", "setting": "[1]", "result": 250, "unit": "µg/mL"},
      {"measurement": "Antimicrobial Activity, MIC, VanA E. faecalis", "setting": "[2]; BM 4166", "result": 250, "unit": "µg/mL"},
      {"measurement": "antibiotic susceptibility profile of the strain", "setting": "[2]", "result": "resistant"},
      {"measurement": "Antimicrobial Activity, MIC, VanA E. faecalis", "setting": "[3]", "result": 250, "unit": "µg/mL"},
      {"measurement": "Antimicrobial Activity, MIC, sensitive S. aureus", "setting": "[4]", "result": 0.5, "unit": "µg/mL"},
      {"measurement": "Antimicrobial Activity, MIC, VanA E. faecium", "setting": "[5]; ATCC BAA-2317", "result": 250, "unit": "µg/mL"},
      {"measurement": "antibiotic susceptibility profile of the strain", "setting": "[5]; VanA E. faecium ATCC BAA-2317", "result": "resistant"},
      {"measurement": "reduction of binding affinity for the altered ligand", "setting": "[6]", "result": 1000, "unit": "fold"},
      {"measurement": "inhibition of bacterial cell wall synthesis (accumulation of 19)", "setting": "[7]", "result": "do not effectively inhibit bacterial cell wall synthesis"},
      {"measurement": "red blood cell hemolytic activity, extended exposure", "setting": "[8]", "result": "no different from the control tigecycline"},
      {"measurement": "Antimicrobial Activity, MIC, VanB E. faecalis", "setting": "[9]", "result": 8, "unit": "µg/mL"},
      {"measurement": "Antimicrobial Activity, MIC, MRSA S. aureus", "setting": "[10]", "result": 0.5, "unit": "µg/mL"}
    ]},
    {"smiles": "CCCCCCCCCC(=O)N[C@@H](Cc1c[nH]c2ccccc12)C(=O)N[C@H](CC(N)=O)C(=O)N[C@@H](CC(=O)O)C(=O)N[C@@H]1C(=O)NCC(=O)N[C@@H](CCCN)C(=O)N[C@@H](CC(=O)O)C(=O)N[C@H](C)C(=O)N[C@@H](CC(=O)O)C(=O)NCC(=O)N[C@H](CO)C(=O)N[C@@H]([C@H](C)CC(=O)O)C(=O)N[C@@H](CC(=O)c2ccccc2N)C(=O)O[C@@H]1C", "note": "[daptomycin]", "values": [
      {"measurement": "antibiotic susceptibility profile of the strain", "setting": "[2]", "result": "sensitive"},
      {"measurement": "emergence of resistance on serial passaging", "setting": "[11]", "result": "arises much faster and is much more pronounced; also recorded: arise much faster and was more pronounced"}
    ]},
    {"smiles": "CCCCCCCCCCCCCC[N+](C)(C)CCCNC(=O)[C@H]1NC(=O)[C@H]2NC(=O)[C@@H](NC(=O)[C@@H]3NC(=O)[C@H](CC(N)=O)NC(=O)[C@H](NC(=O)[C@@H](CC(C)C)NC)[C@H](O)c4ccc(c(Cl)c4)Oc4cc3cc(c4OC3OC(CO)C(O)[C@H](O)[C@@H]3O[C@H]3CC(C)(N)[C@H](O)[C@H](C)O3)Oc3ccc(cc3Cl)[C@H]2O)c2ccc(O)c(c2)-c2c(O)cc(O)cc21", "note": "(stereo partly drawn) [Compound 12]", "values": [
      {"measurement": "MIC", "setting": "[2]; Enterococcus faecalis, VRE, read-out: Antimicrobial Activity, MIC, VanA E. faecalis", "result": 2, "unit": "µg/mL"},
      {"measurement": "induced cell membrane permeability (propidium uptake)", "setting": "[12]", "result": "produced pronounced, rapid cell membrane permeability"},
      {"measurement": "MIC", "setting": "[5]; Enterococcus faecium, read-out: Antimicrobial Activity, MIC, VanA E. faecium", "result": 2, "unit": "µg/mL"},
      {"measurement": "red blood cell hemolytic activity, extended exposure", "setting": "[8]", "result": "performed worse than the control daptomycin"}
    ]}
  ]
}
